Test results as given in US6737383B1, “Herbicidal oxadiazolidines” (priority 1999, dated 2004).

Columns and labels:
duck salad = experiment: Test B flood test duck salad; assay type: in vivo, Heteranthera limosa; conditions: Pre-emergence
Method in brief: (§1)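 Flood test on plants grown to the 2-leaf stage; treated plants kept in greenhouse twelve to sixteen days, then visually rated against controls on a 0 (no effect) to 10 (complete control) scale.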

wheat = experiment: Test B pre/postemergence wheat; assay type: in vivo, Triticum aestivum
Method in brief: (§2)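 Herbicidal effect was estimated by eye on a ten-point control scale after plants spent twelve to sixteen days in a greenhouse following soil or foliar treatment. Foliar sprays targeted plants at one to four leaves; all doses were formulated in a non-phytotoxic solvent with surfactant.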

rice = experiment: Test B flood test rice; assay type: in vivo, Oryza sativa; conditions: Pre-emergence
Method in brief: as §1

bedstraw = experiment: Test B pre/postemergence bedstraw; assay type: in vivo, Galium aparine
Method in brief: as §2

wild oat = experiment: Test B pre/postemergence wild oat; assay type: in vivo, Avena fatua
Method in brief: as §2

sugar beet = experiment: Test B pre/postemergence sugar beet; assay type: in vivo, Beta vulgaris
Method in brief: as §2

smallflower flatsedge = experiment: Test B flood test smallflower flatsedge; assay type: in vivo, Cyperus difformis; conditions: Pre-emergence
Method in brief: as §1

morningglory = experiment: Test B pre/postemergence morningglory; assay type: in vivo, Ipomoea hederacea
Method in brief: as §2

purple nutsedge = experiment: Test B pre/postemergence purple nutsedge; assay type: in vivo, Cyperus rotundus
Method in brief: as §2

velvetleaf = experiment: Test B pre/postemergence velvetleaf; assay type: in vivo, Abutilon theophrasti
Method in brief: as §2

cocklebur = experiment: Test B pre/postemergence cocklebur; assay type: in vivo, Xanthium strumarium
Method in brief: as §2

pigweed = experiment: Test B pre/postemergence pigweed; assay type: in vivo, Amaranthus retroflexus
Method in brief: as §2

blackgrass = experiment: Test B pre/postemergence blackgrass; assay type: in vivo, Alopecurus myosuroides
Method in brief: as §2

giant foxtail = experiment: Test B pre/postemergence giant foxtail; assay type: in vivo, Setaria faberii
Method in brief: as §2

corn = experiment: Test B pre/postemergence corn; assay type: in vivo, Zea mays
Method in brief: as §2

bamyardgrass = experiment: Test B flood test barnyardgrass; assay type: in vivo, Echinochloa crus-galli; conditions: Pre-emergence
Method in brief: as §1

soybean = experiment: Test B pre/postemergence soybean; assay type: in vivo, Glycine max
Method in brief: as §2

crabgrass = experiment: Test B pre/postemergence crabgrass; assay type: in vivo, Digitaria sanguinalis
Method in brief: as §2

surinam grass = experiment: Test B pre/postemergence surinam grass; assay type: in vivo, Brachiaria decumbens
Method in brief: as §2

rape = experiment: Test B pre/postemergence rape; assay type: in vivo, Brassica napus
Method in brief: as §2

[1] = Rate 1000 g/ha, scale 0 to 10 (0 no effect, 10 complete control)
[2] = Rate 125 g/ha, flood test species, scale 0 to 10 where 0 is no effect and 10 is complete control
[3] = Rate 250 g/ha, flood-test species, scale 0 to 10, 0 is no effect, 10 is complete control
[4] = Rate 500 g/ha, flood test species, scale 0 to 10 (0 no effect, 10 complete control)
[5] = Preemergence, Rate 62 g/ha, scale of 0 to 10 where 0 is no effect and 10 is complete control
[6] = Preemergence, Rate 250 g/ha, scale of 0 to 10 where 0 is no effect and 10 is complete control
[7] = Preemergence, Rate 500 g/ha, scale of 0 to 10 where 0 is no effect and 10 is complete control
[8] = Rate 125 g/ha, Preemergence, scale of 0 to 10 where 0 is no effect and 10 is complete control
[9] = Rate 500 g/ha, Postemergence, scale 0 to 10, 0 no effect, 10 complete control
[10] = Rate 62 g/ha, Postemergence, scale of 0 to 10 where 0 is no effect and 10 is complete control
[11] = Rate 125 g/ha, Postemergence, scale 0 to 10

CCOC(=O)C(C)N(C(=O)n1oc(=O)n(CC)c1=O)c1ccc(F)cc1 (stereo not drawn) [Compound 248]
Ducksalad plant response rating (duck salad; [1]): 0
Ducksalad plant response rating (duck salad; [2]): 0
Ducksalad plant response rating (duck salad; [3]): 0
Ducksalad plant response rating (duck salad; [4]): 0
Wheat plant response rating (wheat; [5]): 0
Wheat plant response rating (wheat; [6]): 0
Plant response rating, Wheat (wheat; [7]): 0
Wheat plant response rating (wheat; [8]): 0
Wheat plant response rating (wheat; [9]): 0
Rice plant response rating (rice; [1]): 0
Rice plant response rating (rice; [2]): 0
Rice plant response rating (rice; [3]): 0
Rice plant response rating (rice; [4]): 0
Bedstraw plant response rating (bedstraw; [5]): 0
Bedstraw plant response rating (bedstraw; [6]): 0
Plant response rating, Bedstraw (bedstraw; [7]): 0
Bedstraw plant response rating (bedstraw; [10]): 0
Bedstraw plant response rating (bedstraw; [11]): 0
Bedstraw plant response rating (bedstraw; [8]): 0
Plant response rating (0 to 10; 0 is no effect, 10 is complete control), Bedstraw (bedstraw; Rate 250 g/ha, Postemergence): 0
Bedstraw plant response rating (bedstraw; [9]): 0
Wild oats plant response rating (wild oat; [5]): 0
Wild oats plant response rating (wild oat; [6]): 0
Plant response rating, Wild oats (wild oat; [7]): 0
Wild oats plant response rating (wild oat; [8]): 0
Wild oats plant response rating (wild oat; [9]): 0
Sugarbeets plant response rating (sugar beet; [5]): 0
Sugarbeets plant response rating (sugar beet; [6]): 0
Plant response rating, Sugarbeets (sugar beet; [7]): 0
Sugarbeets plant response rating (sugar beet; [8]): 0
Sugarbeets plant response rating (sugar beet; [9]): 0
S. Flatsedge plant response rating (smallflower flatsedge; [1]): 0
S. Flatsedge plant response rating (smallflower flatsedge; [2]): 0
S. Flatsedge plant response rating (smallflower flatsedge; [3]): 0
S. Flatsedge plant response rating (smallflower flatsedge; [4]): 0
Morningglory plant response rating (morningglory; [5]): 0
Morningglory plant response rating (morningglory; [6]): 0
Plant response rating, Morningglory (morningglory; [7]): 0
Morningglory plant response rating (morningglory; [8]): 0
Plant response rating (0 to 10; 0 is no effect, 10 is complete control), Morningglory (morningglory; Rate 250 g/ha, Postemergence): 0
Morningglory plant response rating (morningglory; [9]): 0
Nutsedge plant response rating (purple nutsedge; [5]): 0
Nutsedge plant response rating (purple nutsedge; [6]): 0
Plant response rating, Nutsedge (purple nutsedge; [7]): 0
Nutsedge plant response rating (purple nutsedge; [8]): 0
Plant response rating (0 to 10; 0 is no effect, 10 is complete control), Nutsedge (purple nutsedge; Rate 250 g/ha, Postemergence): 0
Nutsedge plant response rating (purple nutsedge; [9]): 0
Velvetleaf plant response rating (velvetleaf; [5]): 0
Velvetleaf plant response rating (velvetleaf; [6]): 0
Plant response rating, Velvetleaf (velvetleaf; [7]): 0
Velvetleaf plant response rating (velvetleaf; [8]): 0
Velvetleaf plant response rating (velvetleaf; [9]): 0
Cocklebur plant response rating (cocklebur; [5]): 0
Cocklebur plant response rating (cocklebur; [6]): 0
Plant response rating, Cocklebur (cocklebur; [7]): 0
Cocklebur plant response rating (cocklebur; [10]): 0
Cocklebur plant response rating (cocklebur; [11]): 0
Cocklebur plant response rating (cocklebur; [8]): 0
Plant response rating (0 to 10; 0 is no effect, 10 is complete control), Cocklebur (cocklebur; Rate 250 g/ha, Postemergence): 0
Cocklebur plant response rating (cocklebur; [9]): 0
Redroot pigweed plant response rating (pigweed; [5]): 0
Redroot pigweed plant response rating (pigweed; [6]): 0
Plant response rating, Redroot pigweed (pigweed; [7]): 0
Redroot pigweed plant response rating (pigweed; [8]): 0
Plant response rating (0 to 10; 0 is no effect, 10 is complete control), Redroot pigweed (pigweed; Rate 250 g/ha, Postemergence): 0
Redroot pigweed plant response rating (pigweed; [9]): 0
Blackgrass plant response rating (blackgrass; [5]): 0
Blackgrass plant response rating (blackgrass; [6]): 0
Plant response rating, Blackgrass (blackgrass; [7]): 0
Blackgrass plant response rating (blackgrass; [10]): 0
Blackgrass plant response rating (blackgrass; [11]): 0
Blackgrass plant response rating (blackgrass; [8]): 0
Plant response rating (0 to 10; 0 is no effect, 10 is complete control), Blackgrass (blackgrass; Rate 250 g/ha, Postemergence): 0
Blackgrass plant response rating (blackgrass; [9]): 0
Giant foxtail plant response rating (giant foxtail; [5]): 0
Giant foxtail plant response rating (giant foxtail; [6]): 0
Plant response rating, Giant foxtail (giant foxtail; [7]): 0
Giant foxtail plant response rating (giant foxtail; [8]): 0
Plant response rating (0 to 10; 0 is no effect, 10 is complete control), Giant foxtail (giant foxtail; Rate 250 g/ha, Postemergence): 0
Giant foxtail plant response rating (giant foxtail; [9]): 0
Corn plant response rating (corn; [5]): 0
Corn plant response rating (corn; [6]): 0
Plant response rating, Corn (corn; [7]): 0
Corn plant response rating (corn; [10]): 0
Corn plant response rating (corn; [11]): 0
Corn plant response rating (corn; [8]): 0
Plant response rating (0 to 10; 0 is no effect, 10 is complete control), Corn (corn; Rate 250 g/ha, Postemergence): 0
Corn plant response rating (corn; [9]): 0
Barnyardgrass plant response rating (bamyardgrass; [1]): 0
Barnyardgrass plant response rating (bamyardgrass; [2]): 0
Barnyardgrass plant response rating (bamyardgrass; [3]): 0
Barnyardgrass plant response rating (bamyardgrass; [4]): 0
Soybean plant response rating (soybean; [5]): 0
Soybean plant response rating (soybean; [6]): 0
Plant response rating, Soybean (soybean; [7]): 0
Soybean plant response rating (soybean; [8]): 0
Soybean plant response rating (soybean; [9]): 1
Crabgrass plant response rating (crabgrass; [5]): 0
Crabgrass plant response rating (crabgrass; [6]): 0
Plant response rating, Crabgrass (crabgrass; [7]): 0
Crabgrass plant response rating (crabgrass; [8]): 0
Plant response rating (0 to 10; 0 is no effect, 10 is complete control), Crabgrass (crabgrass; Rate 250 g/ha, Postemergence): 0
Crabgrass plant response rating (crabgrass; [9]): 0
B. signalgrass plant response rating (surinam grass; [5]): 0
B. signalgrass plant response rating (surinam grass; [6]): 0
Plant response rating, B. signalgrass (surinam grass; [7]): 0
B. signalgrass plant response rating (surinam grass; [10]): 0
B. signalgrass plant response rating (surinam grass; Rate 125 g/ha, Postemergence, scale 0 (no effect) to 10 (complete control)): 0
B. signalgrass plant response rating (surinam grass; [8]): 0
Plant response rating (0 to 10; 0 is no effect, 10 is complete control), B. signalgrass (surinam grass; Rate 250 g/ha, Postemergence): 0
B. signalgrass plant response rating (surinam grass; [9]): 0
Rape plant response rating (rape; [5]): 0
Rape plant response rating (rape; [6]): 0
Plant response rating, Rape (rape; [7]): 0
Rape plant response rating (rape; [8]): 0
Plant response rating (0 to 10; 0 is no effect, 10 is complete control), Rape (rape; Rate 250 g/ha, Postemergence): 0
Rape plant response rating (rape; [9]): 0
